Reference: ChEMBL document CHEMBL1201862, “PubChem BioAssay data set” (2004)
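1) Cells in 96-well plates. 2) Compound, 48 h, 5 concentrations. 3) Linear interpolation between surrounding doses. 4) Unreached endpoint = highest concentration. GI50 is the concentration that inhibits growth by half.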 Active and inactive are the calls of the source. Cut-off read from the data, not from the text of the source: active = GI50 up to about 1.1 µM and inactive = higher.

Legend:
Assay in all cases: NCI tumour cell line growth inhibition, 48 h
ACHN = tested on: ACHN
BT-549 = tested on: BT-549
CCRF-CEM = tested on: CCRF-CEM
DU-145 = tested on: DU-145
HCT-116 = tested on: HCT-116
HT-29 = tested on: HT-29
Hs-578T = tested on: Hs-578T
K562 = tested on: K562
KM12 = tested on: KM12
M14 = tested on: M14
MCF7 = tested on: MCF7
MDA-MB-435 = tested on: MDA-MB-435
OVCAR-3 = tested on: OVCAR-3
PC-3 = tested on: PC-3
RPMI-8226 = tested on: RPMI-8226
RXF 393 = tested on: RXF 393
SK-MEL-28 = tested on: SK-MEL-28
SK-MEL-2 = tested on: SK-MEL-2
SN12C = tested on: SN12C
TK-10 = tested on: TK-10

SMILES | GI50 (ACHN) | GI50 (BT-549) | GI50 (CCRF-CEM) | GI50 (DU-145) | GI50 (HCT-116) | GI50 (HT-29) | GI50 (Hs-578T) | GI50 (K562) | GI50 (KM12) | GI50 (M14) | GI50 (MCF7) | GI50 (MDA-MB-435) | GI50 (OVCAR-3) | GI50 (PC-3) | GI50 (RPMI-8226) | GI50 (RXF 393) | GI50 (SK-MEL-28) | GI50 (SK-MEL-2) | GI50 (SN12C) | GI50 (TK-10)
Cc1c(-c2nc3ccccc3[nH]2)c(=O)n(-c2ccccc2)n1C | > 100 µM (inactive) | > 100 µM (inactive) | > 100 µM (inactive) | > 100 µM (inactive) | > 100 µM (inactive) | > 100 µM (inactive) | > 100 µM (inactive) | > 100 µM (inactive) | > 100 µM (inactive) | > 100 µM (inactive) | > 100 µM (inactive) | > 100 µM (inactive) | > 100 µM (inactive) | > 100 µM (inactive) | > 100 µM (inactive) | > 100 µM (inactive) | > 100 µM (inactive) | > 100 µM (inactive) | > 100 µM (inactive) | > 100 µM (inactive)
NCCCN1CCN(CC(=O)O)CCN(CCCN)CCN(CC(=O)O)CC1 | > 100 µM (inactive) | > 100 µM (inactive) | > 91.6 µM (inactive) | > 100 µM (inactive) | > 100 µM (inactive) | > 19.9 µM (inactive) | > 100 µM (inactive) | 6.67 µM (inactive) | 28.3 µM (inactive) | 82.6 µM (inactive) | 44.1 µM (inactive) | > 100 µM (inactive) | > 31.8 µM (inactive) | > 45.1 µM (inactive) | 17.4 µM (inactive) | > 47.9 µM (inactive) | > 100 µM (inactive) | > 33.3 µM (inactive) | > 100 µM (inactive) | > 100 µM (inactive)
CO[P@]1(=O)O[C@@H](c2ccccc2)[C@H](O)[C@]1(O)c1ccccc1 | > 100 µM (inactive) | > 100 µM (inactive) | > 100 µM (inactive) | > 100 µM (inactive) | > 100 µM (inactive) | > 100 µM (inactive) | > 100 µM (inactive) | > 100 µM (inactive) | > 100 µM (inactive) | > 100 µM (inactive) | > 100 µM (inactive) | > 100 µM (inactive) | > 100 µM (inactive) | > 100 µM (inactive) | > 100 µM (inactive) | > 100 µM (inactive) | > 100 µM (inactive) | > 100 µM (inactive) | > 100 µM (inactive) | > 100 µM (inactive)
COc1cc2c(c3c1c(=O)c1ccccc1n3C)C=CC1(CCCC1)O2 | 16.3 µM (inactive) | 10.1 µM (inactive) | 9.82 µM (inactive) | 17.6 µM (inactive) | 15.1 µM (inactive) | 7.05 µM (inactive) | 2.61 µM (inactive) | 7.5 µM (inactive) | 7.05 µM (inactive) | 13.3 µM (inactive) | 16 µM (inactive) | 16.4 µM (inactive) | 13.2 µM (inactive) | > 10 µM (inactive) | 1.81 µM (inactive) | 5.61 µM (inactive) | 13.9 µM (inactive) | 14 µM (inactive) | 19.1 µM (inactive) | 15.6 µM (inactive)
O=C1Nc2ccccc2/C1=N/NC(=S)N1CCCC1 | 0.64 µM (active) | 2.54 µM (inactive) | 0.369 µM (active) | 17.1 µM (inactive) | 0.425 µM (active) | 1.19 µM (inactive) | 2.13 µM (inactive) | 0.586 µM (active) | 2.4 µM (inactive) | 1.56 µM (inactive) | 2.07 µM (inactive) | 3.64 µM (inactive) | 0.53 µM (active) | 0.507 µM (active) | 0.743 µM (active) | 0.358 µM (active) | > 100 µM (inactive) | 6.27 µM (inactive) | 1.91 µM (inactive) | 8.26 µM (inactive)
C[n+]1c(/C=C/c2ccc(O)c3ncccc23)[se]c2ccccc21 | 1.92 µM (inactive) | 6.53 µM (inactive) | 0.92 µM (active) | 4.26 µM (inactive) | 2.58 µM (inactive) | 4.11 µM (inactive) | 15.7 µM (inactive) | 5.11 µM (inactive) | 2.48 µM (inactive) | 4.67 µM (inactive) | 1.58 µM (inactive) | 6.34 µM (inactive) | 1.57 µM (inactive) | 2.92 µM (inactive) | 5.01 µM (inactive) | 8.67 µM (inactive) | 11.4 µM (inactive) | 4.26 µM (inactive) | 2.99 µM (inactive) | 3.1 µM (inactive)
COc1ccc(/N=N/N2CCCC2)cc1 | 15.5 µM (inactive) | 23.2 µM (inactive) | 16.7 µM (inactive) | > 100 µM (inactive) | 20.1 µM (inactive) | 40.2 µM (inactive) | 54.5 µM (inactive) | 31.4 µM (inactive) | 0.305 µM (active) | 44.8 µM (inactive) | 30.8 µM (inactive) | 70.6 µM (inactive) | 19.6 µM (inactive) | 36.5 µM (inactive) | 26.1 µM (inactive) | 26.1 µM (inactive) | 44.2 µM (inactive) | > 100 µM (inactive) | 21.7 µM (inactive) | 57.1 µM (inactive)
